From patent publication KR20110060529A, “시클로헥산 디카르복실산 유도체를 함유하는 피부 외용제 조성물” ((주)아모레퍼시픽, priority 2009, dated 2011)

Legend:
Type in all cases: in vitro ADME, guinea pig
[1] = Test Example 4: skin absorption of vitamin A (retinoic acid) (Franz permeation cell, HPLC)
[2] = Test Example 3: skin absorption of arbutin (Franz permeation cell, HPLC)
[3] = Test Example 2: skin absorption of ascorbyl glucoside (Franz permeation cell, HPLC)

increase in skin absorption of retinoic acid [1]: 2~3 fold
increase in skin absorption of arbutin [2]: 5~6 fold
increase in skin absorption of ascorbyl glucoside [3]: 5~6 fold
Compound: CCOCCOCCOC(=O)C1CCC(C(=O)OCCOCCOCC)CC1 (stereo not drawn) [시클로헥산 디카르복실산 유도체, Bis-Ethoxydiglycol Cyclohexane 1,4-Dicarboxylate]
